Experimental data published in PubChem BioAssay (NCI).
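Exposure lasted 48 hours, with cells grown in 96-well plates and compounds tested at five concentrations. Definition used: TGI = concentration required for complete inhibition of growth.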

Experiments:
Test in all cases: NCI anticancer screen, dose series, 48 h
[1] = tested on: M14 melanoma
[2] = tested on: ACHN renal
[3] = tested on: SNB-75 CNS
[4] = tested on: OVCAR-8 ovarian
[5] = tested on: SK-MEL-5 melanoma
[6] = tested on: SF-295 CNS
[7] = tested on: SN12C renal
[8] = tested on: DMS 114 small cell lung
[9] = tested on: SW-620 colon
[10] = tested on: HCT-15 colon
[11] = tested on: NCI-H23 lung
[12] = tested on: RPMI-8226 leukemia
[13] = tested on: RXF 393 renal
[14] = tested on: SNB-78 CNS
[15] = tested on: 786-0 renal
[16] = tested on: LXFL 529 NSCLC
[17] = tested on: SF-539 CNS
[18] = tested on: EKVX NSCLC
[19] = tested on: HOP-18 NSCLC
[20] = tested on: HL-60(TB) leukemia
[21] = tested on: IGROV1 ovarian
[22] = tested on: SF-268 CNS
[23] = tested on: OVCAR-3 ovarian
[24] = tested on: SK-OV-3 ovarian
[25] = tested on: UO-31 renal
[26] = tested on: NCI-H522 lung
[27] = tested on: HT29 colon
[28] = tested on: U251 CNS
[29] = tested on: M19-MEL melanoma
[30] = tested on: KM20L2 colon
[31] = tested on: TK-10 renal
[32] = tested on: HOP-62 NSCLC
[33] = tested on: K-562 leukemia
[34] = tested on: SR leukemia
[35] = tested on: XF 498 CNS
[36] = tested on: UACC-62 melanoma
[37] = tested on: CAKI-1 renal
[38] = tested on: HCC-2998 colon
[39] = tested on: CCRF-CEM leukemia
[40] = tested on: SK-MEL-2 melanoma
[41] = tested on: A549 NSCLC
[42] = tested on: COLO 205 colon
[43] = tested on: HCT-116 colon
[44] = tested on: DMS 273 small cell lung
[45] = tested on: NCI-H460 lung
[46] = tested on: OVCAR-4 ovarian
[47] = tested on: OVCAR-5 ovarian
[48] = tested on: KM12 colon
[49] = tested on: NCI-H226 lung
[50] = tested on: MOLT-4 leukemia
[51] = tested on: SNB-19 CNS
[52] = tested on: SK-MEL-28 melanoma
[53] = tested on: MALME-3M melanoma
[54] = tested on: A498 renal
[55] = tested on: HOP-92 NSCLC
[56] = tested on: UACC-257 melanoma
[57] = tested on: DLD-1 colon
[58] = tested on: LOX IMVI melanoma
[59] = tested on: MCF7 breast
[60] = tested on: MDA-N
[61] = tested on: T-47D breast
[62] = tested on: HS 578T breast
[63] = tested on: PC-3 prostate
[64] = tested on: MDA-MB-231 breast
[65] = tested on: NCI/ADR-RES ovarian
[66] = tested on: DU-145 prostate
[67] = tested on: MDA-MB-435
[68] = tested on: BT-549 breast

COCCCCCC(=O)CP(=O)(OC)OC gave a TGI [1] greater than 100 µM, a TGI [2] greater than 100 µM and a TGI [3] greater than 100 µM. For the same compound, the TGI [4] was greater than 100 µM, the TGI [5] was greater than 100 µM and the TGI [6] was greater than 100 µM. For the same compound, the TGI [7] was greater than 100 µM, the TGI [8] was greater than 100 µM and the TGI [9] was greater than 100 µM. For the same compound, the TGI [10] was greater than 100 µM, the TGI [11] was greater than 100 µM and the TGI [12] was greater than 100 µM. For the same compound, the TGI [13] was greater than 100 µM, the TGI [14] was greater than 100 µM and the TGI [15] was greater than 100 µM. The TGI [16] was greater than 100 µM, the TGI [17] was greater than 100 µM and the TGI [18] was greater than 100 µM. For the same compound, the TGI [19] was greater than 100 µM, the TGI [20] was greater than 100 µM and the TGI [21] was greater than 100 µM. It also gave a TGI [22] greater than 100 µM, a TGI [23] greater than 100 µM and a TGI [24] greater than 100 µM. For the same compound, the TGI [25] was greater than 100 µM, the TGI [26] was greater than 100 µM and the TGI [27] was greater than 100 µM. The TGI [28] was greater than 100 µM, the TGI [29] was greater than 100 µM and the TGI [30] was greater than 100 µM. The TGI [31] was greater than 100 µM, the TGI [32] was greater than 100 µM and the TGI [33] was greater than 100 µM. It also gave a TGI [34] greater than 100 µM, a TGI [35] greater than 100 µM and a TGI [36] greater than 100 µM. For the same compound, the TGI [37] was greater than 100 µM, the TGI [38] was greater than 100 µM and the TGI [39] was greater than 100 µM. For the same compound, the TGI [40] was greater than 100 µM, the TGI [41] was greater than 100 µM and the TGI [42] was greater than 100 µM. It also gave a TGI [43] greater than 100 µM, a TGI [44] greater than 100 µM and a TGI [45] greater than 100 µM. It also gave a TGI [46] greater than 100 µM, a TGI [47] greater than 100 µM and a TGI [48] greater than 100 µM. For the same compound, the TGI [49] was greater than 100 µM, the TGI [50] was greater than 100 µM and the TGI [51] was greater than 100 µM. The TGI [52] was greater than 100 µM, the TGI [53] was greater than 100 µM and the TGI [54] was greater than 100 µM. The TGI [55] was greater than 100 µM, the TGI [56] was greater than 100 µM and the TGI [57] was greater than 100 µM. The TGI [58] was greater than 100 µM.

Work on Cn1c2ccccc2c2ccc3c(c21)C(=O)C=CC3=O yielded a TGI [1] of 22.1 µM, a TGI [2] of 8.33 µM and a TGI [59] of 8.96 µM. It also gave a TGI [60] of 19.3 µM, a TGI [3] of 32.5 µM and a TGI [61] of 10.7 µM. The TGI [62] was 58.5 µM, the TGI [4] was 31.1 µM and the TGI [5] was 31 µM. It also gave a TGI [63] of 12.2 µM, a TGI [64] of 18.7 µM and a TGI [6] of 42.1 µM. The TGI [7] was 26.5 µM, the TGI [8] was 21.5 µM and the TGI [9] was 4.46 µM. The TGI [10] was 12.1 µM, the TGI [11] was 27.3 µM and the TGI [12] was 14.6 µM. For the same compound, the TGI [13] was 5.96 µM, the TGI [14] was 48.4 µM and the TGI [15] was 9.2 µM. It also gave a TGI [16] of 8.26 µM, a TGI [17] of 26.3 µM and a TGI [18] of 38.6 µM. For the same compound, the TGI [19] was 5.58 µM, the TGI [20] was 11.8 µM and the TGI [21] was 29.9 µM. It also gave a TGI [22] of 30.5 µM, a TGI [23] of 20.9 µM and a TGI [24] of 33.2 µM. The TGI [65] was 14.4 µM, the TGI [25] was 13.7 µM and the TGI [26] was 6.36 µM. It also gave a TGI [66] of 29.5 µM, a TGI [27] of 26 µM and a TGI [28] of 25.1 µM. The TGI [29] was 24.5 µM, the TGI [30] was 33.9 µM and the TGI [31] was 12.2 µM. It also gave a TGI [67] of 10.9 µM, a TGI [32] of 48 µM and a TGI [33] greater than 45.1 µM. It also gave a TGI [34] of 15.9 µM, a TGI [35] of 4.88 µM and a TGI [36] of 26.7 µM. For the same compound, the TGI [37] was 11.8 µM, the TGI [38] was 15.1 µM and the TGI [39] was 14.5 µM. For the same compound, the TGI [40] was 29.9 µM, the TGI [41] was 61 µM and the TGI [42] was 6.9 µM. For the same compound, the TGI [43] was 10.9 µM, the TGI [44] was 25.8 µM and the TGI [45] was 46.4 µM. The TGI [46] was 4.08 µM, the TGI [47] was 28.3 µM and the TGI [48] was 60.7 µM. It also gave a TGI [49] of 51 µM, a TGI [51] of 46.4 µM and a TGI [52] of 25.7 µM. For the same compound, the TGI [53] was 12.2 µM, the TGI [54] was greater than 59.4 µM and the TGI [55] was 4.66 µM. The TGI [56] was 23.1 µM, the TGI [57] was 6.02 µM and the TGI [58] was 10.5 µM. For the same compound, the TGI [68] was 18.9 µM.
